Reference: article PMC9850727, “Benzoxazolone-5-Urea Derivatives as Human Soluble Epoxide Hydrolase (sEH) Inhibitors” (ACS Omega, 2023)

Columns and labels:
human recombinant sEH = target: T1, human recombinant sEH (Homo sapiens, UniProt P34913); assay: Cell-free sEH activity assay (fluorescence-based, PHOME substrate); type: biochemical; settings: for sEH activity % of control at 1 μM / sEH activity % of control at 10 μM: residual activity; for inhibition at 10 µM: inhibition as stated in text
T1 construct: made in house; host or cells: Sf9 cells infected with recombinant baculovirus (from Dr. Bruce Hammock, UC Davis)
T1 sequence (P34913 1-555): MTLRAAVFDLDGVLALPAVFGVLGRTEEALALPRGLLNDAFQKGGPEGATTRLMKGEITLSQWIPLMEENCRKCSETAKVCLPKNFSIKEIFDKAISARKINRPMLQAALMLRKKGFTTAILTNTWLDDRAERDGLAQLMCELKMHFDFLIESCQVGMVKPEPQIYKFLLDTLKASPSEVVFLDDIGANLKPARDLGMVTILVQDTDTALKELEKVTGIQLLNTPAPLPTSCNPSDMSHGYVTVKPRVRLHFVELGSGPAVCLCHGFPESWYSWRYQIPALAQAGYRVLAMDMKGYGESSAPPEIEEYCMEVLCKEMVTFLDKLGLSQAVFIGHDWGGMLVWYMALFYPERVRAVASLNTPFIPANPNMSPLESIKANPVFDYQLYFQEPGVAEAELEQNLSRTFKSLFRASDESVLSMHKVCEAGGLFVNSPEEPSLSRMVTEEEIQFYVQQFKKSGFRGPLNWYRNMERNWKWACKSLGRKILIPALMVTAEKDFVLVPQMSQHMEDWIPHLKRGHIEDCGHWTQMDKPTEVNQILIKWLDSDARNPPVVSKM
Excerpt: Inspired by the reported crystallographic screening studies,[12],[13],[15] a series of aryl amide (12, 15–21) or urea (31–39) derivatives with a benzoxazolone head group were synthesized and assessed for inhibition of human recombinant sEH in a cell-free activity assay[27] (Tables 1 and 2). […] Consequently, compounds in which the amide group is attached to the benzoxazolone ring through NH could outperform their direct reversed analogues by more favorable interactions in the central pocket of sEH. In addition, simple methylation of the benzoxazolone NH in 17–18 engendered noticeable differences in sEH inhibition relative to the unmethylated counterparts 15–16, implying that a free NH with H-bond donor property at this location is also important for the observed potency. Subsequently, the positioning of the amide group at the 5-position of the benzoxazolone ring also retained the inhibitory activity.
Human recombinant sEH was expressed and purified as published before.[31] Briefly, Sf9 cells were infected with a recombinant baculovirus (obtained from Dr. Bruce Hammock, University of California, Davis, CA). Following 72 h of transfection, the cells were centrifuged and then sonicated (3 × 10 s at 4 °C) in lysis buffer comprising glycerol (10%), NaHPO4 (50 mM, pH 8), leupeptin (10 μg/mL), NaCl (300 mM), phenylmethanesulfonyl fluoride (1 mM), EDTA (1 mM), and soybean trypsin inhibitor (60 μg/mL). After centrifugation at 100,000g (60 min, 4 °C), the obtained supernatants were subjected to a benzylthio-sepharose-affinity chromatography and eluted with 4-fluorochalcone oxide in PBS containing 1 mM DTT and 1 mM EDTA for purification of sEH. The enzyme was dialyzed and concentrated (Millipore Amicon-Ultra-15 centrifugal filter), and the solution was further assayed for total protein content by a protein detection kit (Bio-Rad Laboratories, Munich, Germany). The epoxide hydrolase activity was measured using a fluorescence-based assay, as reported before.[27] In brief, sEH was diluted in Tris buffer (25 mM, pH 7) containing BSA (0.1 mg/mL) to a suitable enzyme concentration and pretreated with test compounds or 0.1% DMSO as vehicle for 10 min at room temperature. To start the reaction, 50 μM of the PHOME substrate (3-phenyl-cyano(6-methoxy-2-naphthalenyl)methyl ester-2-oxiraneacetic acid), a nonfluorescent compound that is enzymatically converted by sEH into fluorescent 6-methoxy-naphtaldehyde, was added at RT. The reaction was stopped by addition of ZnSO4 (200 mM) after 60 min, and fluorescence was measured (λem 465 nm, λex 330 nm) by employing a NOVOstar microplate reader (BMG LABTECH GmbH, Ortenberg, Germany). If required, the potential fluorescence of test compounds was subtracted from the readout.

[1] = mean ± SEM, n = 3, benzoxazolone-amides (Table 1)
[2] = cell-free assay, benzoxazolone-amides (Table 1)
[3] = mean ± SEM, n = 3, benzoxazolone-ureas (Table 2)
[4] = cell-free assay, mean ± SEM, n = 3, benzoxazolone-ureas (Table 2)

sEH activity % of control at 1 μM (human recombinant sEH; [1])	sEH activity % of control at 10 μM (human recombinant sEH; [1])	sEH inhibition (in words) (human recombinant sEH; cell-free assay)	IC50 (human recombinant sEH; [2]) [nM]	melting point	inhibition at 10 µM (human recombinant sEH) [%]	sEH activity % of control at 1 μM (human recombinant sEH; [3])	sEH activity % of control at 10 μM (human recombinant sEH; [3])	IC50 (human recombinant sEH; [4]) [nM]	Compound
47.4 ± 7.1 % of control	14.4 ± 6.8 % of control		~1000	231 to 233 °C					O=C(Nc1ccc2oc(=O)[nH]c2c1)c1ccc(Oc2ccccc2)cc1 [Compound 21, N-(2-Oxo-2,3-dihydro-1,3-benzoxazol-5-yl)-4-phenoxybenzamide]
				242.5 °C (dec.)		3.1 ± 6.2 % of control	5.8 ± 6.2 % of control	9.9 ± 2.9	O=C(NCc1ccccc1Cl)Nc1ccc2oc(=O)[nH]c2c1 [Compound 31, 1-[(2-Chlorophenyl)methyl]-3-(2-oxo-2,3-dihydro-1,3-benzoxazol-5-yl)urea]
				237.8 °C (dec.)		7.1 ± 5.8 % of control	4.7 ± 8.0 % of control	2 ± 0.42	O=C(NCc1ccccc1C(F)(F)F)Nc1ccc2oc(=O)[nH]c2c1 [Compound 32, 3-(2-Oxo-2,3-dihydro-1,3-benzoxazol-5-yl)-1-{[2-(trifluoromethyl)phenyl]methyl}urea]
				244.5 °C (dec.)		18.6 ± 5.1 % of control	7.5 ± 3.4 % of control	80 ± 23	O=C(NCc1cccc(Cl)c1)Nc1ccc2oc(=O)[nH]c2c1 [Compound 34, 1-[(3-Chlorophenyl)methyl]-3-(2-oxo-2,3-dihydro-1,3-benzoxazol-5-yl)urea]
				249.3 °C (dec.)		62.8 ± 3.3 % of control	5.2 ± 3.6 % of control	570 ± 15	O=C(NCc1ccc(F)cc1)Nc1ccc2oc(=O)[nH]c2c1 [Compound 35, 1-[(4-Fluorophenyl)methyl]-3-(2-oxo-2,3-dihydro-1,3-benzoxazol-5-yl)urea]
				251 °C (dec.)		18.6 ± 2.6 % of control	1.9 ± 2.4 % of control	120 ± 20	O=C(NCc1ccc(Cl)cc1)Nc1ccc2oc(=O)[nH]c2c1 [Compound 36, 1-[(4-Chlorophenyl)methyl]-3-(2-oxo-2,3-dihydro-1,3-benzoxazol-5-yl)urea]
				213.6 °C (dec.)		12.3 ± 2.5 % of control	1.1 ± 1.8 % of control	53 ± 8	O=C(NCc1ccc(C(F)(F)F)cc1)Nc1ccc2oc(=O)[nH]c2c1 [Compound 37, 3-(2-Oxo-2,3-dihydro-1,3-benzoxazol-5-yl)-1-{[4-(trifluoromethyl)phenyl]methyl}urea]
				259.9 °C (dec.)		14.2 ± 2.7 % of control	0.8 ± 2.0 % of control	33 ± 10	O=C(NCc1cccc(F)c1F)Nc1ccc2oc(=O)[nH]c2c1 [Compound 39, 1-[(2,3-Difluorophenyl)methyl]-3-(2-oxo-2,3-dihydro-1,3-benzoxazol-5-yl)urea]

The remaining lines, values behind:

Compound	sEH activity % of control at 1 μM (human recombinant sEH; [1])	sEH activity % of control at 10 μM (human recombinant sEH; [1])	sEH inhibition (in words) (human recombinant sEH; cell-free assay)	IC50 (human recombinant sEH; [2]) [nM]	melting point	inhibition at 10 µM (human recombinant sEH) [%]	sEH activity % of control at 1 μM (human recombinant sEH; [3])	sEH activity % of control at 10 μM (human recombinant sEH; [3])	IC50 (human recombinant sEH; [4]) [nM]
O=C(Nc1ccc(OCc2ccccc2)cc1)c1ccc2[nH]c(=O)oc2c1 [Compound 12, N-[4-(Benzyloxy)phenyl]-2-oxo-2,3-dihydro-1,3-benzoxazole-6-carboxamide]	91.0 ± 6.1 % of control	84.4 ± 3.8 % of control	devoid of sEH inhibition	> 10000	> 300 °C				
O=C(Nc1ccc2[nH]c(=O)oc2c1)c1ccc(OCc2ccccc2)cc1 [Compound 15, 4-(Benzyloxy)-N-(2-oxo-2,3-dihydro-1,3-benzoxazol-6-yl)benzamide]	67.8 ± 10.8 % of control	28.9 ± 8.1 % of control		< 10000	256.6 to 259 °C	70			
O=C(Nc1ccc2[nH]c(=O)oc2c1)c1ccc(Oc2ccccc2)cc1 [Compound 16, N-(2-Oxo-2,3-dihydro-1,3-benzoxazol-6-yl)-4-phenoxybenzamide]	49.8 ± 6.3 % of control	15.2 ± 5.9 % of control		~1000	231.8 to 233 °C	85			
Cn1c(=O)oc2cc(NC(=O)c3ccc(OCc4ccccc4)cc3)ccc21 [Compound 17, 4-(Benzyloxy)-N-(3-methyl-2-oxo-2,3-dihydro-1,3-benzoxazol-6-yl)benzamide]	105.8 ± 15.9 % of control	115.1 ± 4.9 % of control		> 10000	251.8 to 253.7 °C				
Cn1c(=O)oc2cc(NC(=O)c3ccc(Oc4ccccc4)cc3)ccc21 [Compound 18, N-(3-Methyl-2-oxo-2,3-dihydro-1,3-benzoxazol-6-yl)-4-phenoxybenzamide]	83.7 ± 9.8 % of control	91.5 ± 2.8 % of control		> 10000	229.1 to 231.1 °C				
O=C(Nc1ccc2oc(=O)[nH]c2c1)c1ccc(OCc2ccccc2)cc1 [Compound 20, 4-(Benzyloxy)-N-(2-oxo-2,3-dihydro-1,3-benzoxazol-5-yl)benzamide]	68.2 ± 6.6 % of control	30.0 ± 10.5 % of control		< 10000	260.7 to 262.8 °C				
